Legend:
[1] = tested on: BX-PC3 human pancreatic carcinoma; assay: In vivo antitumor efficacy in combination with gemcitabine; conditions: BX-PC3 s.c. in athymic mice; compound 1 15 mg/kg ip BID days 9-17; gemcitabine 80 mg/kg iv days 9, 13, 17; combination: gemcitabine days 9, 13, 17, compound 1 days 10, 11, 12, 14, 15, 16, 18, 19, 20
Description: Fragments of BX-PC3 human pancreatic carcinoma were implanted subcutaneously in athymic mice. […] The treatment with gemcitabine started at day 9 after tumor implantation, when tumors were palpable. Compounds were prepared immediately before treatments.
When combined, gemcitabine was administered at days 9, 13, 17 and compound 1 was administered for the following 3 days after gemcitabine administration. […] Tumor growth was assessed by caliper. […] The effect of the antitumor treatment was evaluated as percentage of tumor growth inhibition (TGI %). Toxicity was evaluated on the basis of body weight reduction.

[2] = tested on: A2780 human ovarian carcinoma; assay: In vivo antitumor efficacy in combination with cisplatin; conditions: A2780 s.c. in athymic mice; Compound 1 15 mg/kg ip BID days 13-17; cisplatin 8 mg/kg iv day 17; combination: same doses and days
Description: (§1) A2780 human ovarian carcinoma cells were obtained from American Type Culture Collection (Rockville, Md.) and were maintained in vitro as continuous cultures in RPMI medium supplemented with 10% FBS, at 37° C., 5% CO2. For in vivo experiments 8×10^6 A2780 cells were implanted subcutaneously in athymic mice.
(§2) The treatment started when tumors were palpable (day 13). Both compounds were prepared immediately before treatment.
(§3) Tumor growth was assessed by caliper. […] Animals were sacrificed on day 37 after tumor implant, day 24 from the start of treatments and tumors were weighted. The effect of the antitumor treatment was evaluated as percentage of tumor growth inhibition of the treated group respect to control.

DU145 prostate carcinoma = conditions: DU145 s.c. in athymic mice; delay to reach 1 g tumor; Compound 1 30 mg/kg ip BID days 10-18; docetaxel 7.5 mg/kg iv days 10, 14, 18; combination: docetaxel days 10, 14, 18, Compound 1 days 11, 12, 13, 15, 16, 17, 19, 20, 21
Description: Balb, Nu\Nu male mice, from Harlan (Italy), were maintained in cages with paper filter cover, food and bedding sterilized and water acidified. 2.5×10^6 DU145 prostate carcinoma cells (from the American Type Culture Collection) were injected subcutaneously in athymic mice.
The treatment started 10 days later tumor cells injection when tumors were palpable. Docetaxel was prepared immediately before treatment, compound 1 of formula (A) was prepared daily, on the basis of known stability of the compound.
Compound 1 was administered by intraperitoneal route in a volume of 10 ml/kg at the doses of 30 mg/kg twice a day (BID) for 9 days (days 10 to 18). Docetaxel was administered by intravenous route in a volume of 10 ml/kg at the dose of 7.5 mg/kg on days 10, 14, 18 from the days of cell injection. When combined, compound 1 was administered in the interval between the docetaxel treatments at days 11, 12, 13, 15, 16, 17, 19, 20 and 21. Tumor growth and body weight were measured every 3 days. Tumor growth was assessed by caliper. The two diameters were recorded and the tumor weight was calculated according the following formula:
length (mm)×width^2/2. The effect of the antitumor treatment was evaluated as the delay in the onset of an exponential growth of the tumor (see for references, Anticancer drugs 7:437-60, 1996). […] Toxicity was evaluated on the basis of body weigh reduction.

[3] = tested on: A2780 human ovarian carcinoma; assay: In vivo antitumor efficacy of the combination with irinotecan; conditions: for TGI %: A2780 s.c. in athymic mice, Compound 1 30 mg/kg ip BID days 13-17, irinotecan 60 mg/kg iv day 13, combination: irinotecan 50 mg/kg day 13 + Compound 1 30 mg/kg days 13-17
Description: as §1, with “A2780” for “A2780 cells”, “mice. This tumor model was selected because it was sensitive to platinum derivatives and also on the basis of use of this drugs in ovarian cancer.” for “mice.”
as §2
as §3, with “When combined, compound 1 was administered from day 1 to day 5, irinotecan at day 1. […] Tumor” for “Tumor”

For `CO[C@@H](C(=O)N1Cc2[nH]nc(NC(=O)c3ccc(N4CCN(C)CC4)cc3)c2C1)c1ccccc1` [Compound 1, N-{5-[(2R)-2-methoxy-2-phenylethanoyl]-1,4,5,6-tetrahydropyrrolo[3,4-c]pyrazol-3-yl}-4-(4-methylpiperazin-1-yl)benzamide], the TGI % [1] was 53%, the TGI % [2] was 46% and the “T-C” value (DU145 prostate carcinoma) was 5.3 days. It also gave a TGI % [3] of 72.3%.

For `Nc1ccn([C@@H]2O[C@H](CO)[C@@H](O)C2(F)F)c(=O)n1` [gemcitabine], the TGI % [1] was 61%.

With `N.N.[Cl][Pt][Cl]` [Cisplatin, cisplatin] the TGI % [2] was 21%.

In the case of `CC(=O)O[C@@]12CO[C@@H]1C[C@H](O)[C@@]1(C)C(=O)[C@H](O)C3=C(C)[C@@H](OC(=O)[C@H](O)[C@@H](NC(=O)OC(C)(C)C)c4ccccc4)C[C@@](O)([C@@H](OC(=O)c4ccccc4)[C@H]21)C3(C)C` [docetaxel], the “T-C” value (DU145 prostate carcinoma) is reported as 3.7 days.

`CCc1c2c(nc3ccc(OC(=O)N4CCC(N5CCCCC5)CC4)cc13)-c1cc3c(c(=O)n1C2)COC(=O)[C@]3(O)CC` [irinotecan] was tested, and the TGI % [3] was 62% and the Toxicity ([3]; evaluated on the basis of body weight reduction, A2780 mice, Compound 1 30 mg/kg ip BID, irinotecan iv, alone or combined) was 0/7.
